The source of these data is paper PMC5954141, “Structure-guided Discovery of Dual-recognition Chemibodies” (Scientific Reports, 2018).

Molecules are shown by their SMILES. Read-outs that look alike come from different tables or passages of the source.

In general, IC50 refers to the concentration that gives 50% inhibition.

The experiment concerns the target T1, DPP-IV enzyme (Rattus norvegicus, UniProt P14740).
T1 construct: made in house
Nature of the experiment: DPP-IV dipeptide (Ala-Pro-AFC) cleavage inhibition, fluorescent assay. The experiment is classed as biochemical. How it is done:
DPP-IV catalytic activity and inhibition of dipeptide cleavage was measured using a fluorescent assay performed at room temperature in 384-well, black polypropylene microplates. […] Assay data shown in Fig. 3 were performed with a one-hour incubation time. The data were fit to the four-parameter model using a Levenburg–Marquardt nonlinear regression algorithm. Figure 3b,c were generated using GraphPad Prism v6.
Rat DPP-IV enzyme and Fab mutant proteins were expressed and purified as previously described. […] For x-ray diffraction data collection, crystals were transferred into well solution with 30% (w/v) ethylene glycol and then flash frozen in liquid nitrogen.

[1] abbreviates: dipeptide substrate cleavage, read-out: DPP-IV IC50.
Where [2] appears, read: Table S6, Ala-Pro-AFC at 10 µM, one-hour incubation, triplicate, read-out: measured IC50's.

T1 sequence (P14740 whole entry): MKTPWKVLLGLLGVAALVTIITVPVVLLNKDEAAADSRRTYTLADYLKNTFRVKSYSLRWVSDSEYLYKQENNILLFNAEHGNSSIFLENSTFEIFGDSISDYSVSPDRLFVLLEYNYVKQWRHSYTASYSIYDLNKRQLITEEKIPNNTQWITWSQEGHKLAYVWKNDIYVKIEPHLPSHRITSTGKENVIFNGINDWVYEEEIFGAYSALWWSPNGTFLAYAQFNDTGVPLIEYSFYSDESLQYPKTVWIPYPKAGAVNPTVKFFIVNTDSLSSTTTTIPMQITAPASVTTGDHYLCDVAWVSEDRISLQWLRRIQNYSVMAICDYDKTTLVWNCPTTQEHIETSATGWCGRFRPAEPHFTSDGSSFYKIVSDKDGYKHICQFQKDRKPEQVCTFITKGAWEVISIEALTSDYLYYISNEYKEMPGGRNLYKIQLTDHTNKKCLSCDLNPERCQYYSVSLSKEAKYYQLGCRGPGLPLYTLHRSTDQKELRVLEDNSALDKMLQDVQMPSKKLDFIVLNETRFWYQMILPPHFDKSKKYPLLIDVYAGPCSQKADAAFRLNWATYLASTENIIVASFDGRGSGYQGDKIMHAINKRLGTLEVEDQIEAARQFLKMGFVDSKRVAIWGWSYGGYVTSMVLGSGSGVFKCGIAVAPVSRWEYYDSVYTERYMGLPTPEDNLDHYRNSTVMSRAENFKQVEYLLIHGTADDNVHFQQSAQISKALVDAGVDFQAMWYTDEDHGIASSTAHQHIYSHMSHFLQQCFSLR

As to `CNC(=O)CN1CCN(C(=O)C[C@H](N)Cc2cc(F)c(F)cc2F)CC1.Cl` [compound 2, (R)-2-(4-(3-amino-4-(2,4,5-trifluorophenyl)butanoyl)piperazin-1-yl)-N-methylacetamide hydrochloride], under setting [1], the IC50 was determined as 0.13 µM. Moreover, the “potency loss as compared with sitagliptin” value (same experimental conditions) is recorded as “seven-fold”.
`COCCOCCOCCOCCNC(=O)CN1CCN(C(=O)C[C@H](N)Cc2cc(F)c(F)cc2F)CC1` [compound 4 (n = 3)]: under setting [1], the IC50 turned out to be 0.105 µM.
The same measure, in the same setting: in the case of `COCCOCCOCCOCCOCCOCCOCCOCCNC(=O)CN1CCN(C(=O)C[C@H](N)Cc2cc(F)c(F)cc2F)CC1` [compound 4 (n = 7)] it was 0.07 µM.
Take `CC(=O)NCCOCCOCCOCCNC(=O)CN1CCN(C(=O)C[C@H](N)Cc2cc(F)c(F)cc2F)CC1` [compound 6 (n = 3)]: under setting [2], the IC50 amounted to 0.141 µM.
Still for that read-out and setting: in the case of `CC(=O)NCCOCCOCCOCCOCCNC(=O)CN1CCN(C(=O)C[C@H](N)Cc2cc(F)c(F)cc2F)CC1` [compound 6 (n = 4)] it was 0.1 µM; in that of `CC(=O)NCCOCCOCCOCCOCCOCCNC(=O)CN1CCN(C(=O)C[C@H](N)Cc2cc(F)c(F)cc2F)CC1` [compound 6 (n = 5)], 0.146 µM.
Still for that read-out and setting: next, `CC(=O)NCCOCCOCCOCCOCCOCCOCCNC(=O)CN1CCN(C(=O)C[C@H](N)Cc2cc(F)c(F)cc2F)CC1` [compound 6 (n = 6)]: 0.119 µM; `CC(=O)NCCOCCOCCOCCOCCOCCOCCOCCNC(=O)CN1CCN(C(=O)C[C@H](N)Cc2cc(F)c(F)cc2F)CC1` [compound 6 (n = 7)]: 0.134 µM; `CC(=O)NCCOCCOCCOCCOCCOCCOCCOCCOCCNC(=O)CN1CCN(C(=O)C[C@H](N)Cc2cc(F)c(F)cc2F)CC1` [compound 6 (n = 8)]: 0.124 µM.
On the same count and under the same terms, next, `CC(=O)NCCOCCOCCOCCOCCOCCOCCOCCOCCOCCOCCNC(=O)CN1CCN(C(=O)C[C@H](N)Cc2cc(F)c(F)cc2F)CC1` [compound 6 (n = 10)]: 0.152 µM; `CC(=O)NCCOCCOCCOCCOCCOCCOCCOCCOCCOCCOCCOCCNC(=O)CN1CCN(C(=O)C[C@H](N)Cc2cc(F)c(F)cc2F)CC1` [compound 6 (n = 11)]: 0.16 µM.
